# According to US20260185169A1, “MOLECULAR SIGNATURES TO PREDICT LONG-TERM LIVER FIBROSIS PROGRESSION” (THE BOARD OF REGENTS OF THE UNIVERSITY OF TEXAS SYSTEM, priority 2022, published 2026):
# Assays:
# clinical PCLS tissues = assay: FPS/PLS response (CES, nCounter) in organotypic ex vivo culture of clinical PCLS tissues; assay type: cell-based, human
# From the text: Evaluation of galunisertib, erlotinib, AM095, bortezomib, pioglitazone, metformin, epigallocatechin gallate (EGCG), I-BET 151, JQ1, captopril, nizatidine (Selleck Chemicals); MG-132 (Sigma-Aldrich); cenicriviroc (AbbVie) (Table 2) were done in organotypic ex vivo culture of precision-cut liver slice (PCLS) tissues in the FPS validation set 2 as previously described. Patient-derived liver cell spheroids were generated from a cirrhosis patient and high-risk FPS was induced by free fatty acids, and treated with EGCG, bortezomib, cenicriviroc, and/or bezafibrate for 48 h. Mycoplasma-free human hepatic myofibroblast cell lines, LX-2 and TWNT-4, were cultured with MG-132 (20 μM) or DMSO control for 12 and 24 h in triplicates.
# Total RNA was isolated from fixed tissue sections by using High Pure RNA Paraffin kit (Roche), and assessed for quality by qRT-PCR of RPL13A. Total RNA from the PCLS tissues was isolated using RNeasy kit (Qiagen). RNA samples (100-200 ng) were subjected to the PLS/FPS assay implemented in the nCounter platform (NanoString), and transcriptome profiling of the CENTAUR trial samples was performed by RNA-Seq (TrueSeq RNA Access, Illumina). Expression of BCL2, COL1A1, and ACTA2 genes was measured by qRT-PCR (Table 3). Serum protein profiling was performed by using xMAP assay (Luminex).
# Total RNA was isolated from three to five 10-μm-thick formalin-fixed paraffin-embedded (FFPE) tissue sections from the PLS/FPS derivation/validation cohorts by using High Pure RNA Paraffin kit (Roche), and lack of severe RNA fragmentation was confirmed by qRT-PCR of a housekeeping gene RPL13A as previously described.^1 From freshly harvested myofibroblast cell lines, LX-2 and TWNT-4, and clinical precision-cut-liver slice (PCLS) tissues stored in RNAlater (ThermoFisher) at −80?C, total RNA was isolated using RNeasy kit (Qiagen), and the RNA integrity number (RIN)>8 by Bioanalyzer (Agilent) was regarded as sufficient quality for expression analysis. Total RNA samples (100 to 500 ng) were subjected to the gene signature assays implemented in the digital transcript counting technology (NanoString) according to manufacturer's instruction. Poor quality profiles were detected based on maximum signal intensity from positive control probes <3,000U. Raw transcript count data were log-transformed (base 2) and scaled by geometric mean of control probe data by using NanoString normalizer module implemented in GenePattern data analysis suite (www.broadinstitute.org/genepattern). Genome-wide transcriptome profiling of the CENTAUR trial samples was performed using 100 to 200 ng total RNA by RNA-Seq using exome-enriched library preparation according to the manufacturer's protocol (TrueSeq, Illumina). Raw sequencing reads were mapped onto the reference human genome (hg19) by using the STAR aligner (ver. 2.6.1b) followed by the read counting on genes via featureCounts in the Subread package (ver. 1.6.1). The raw read counts were further normalized by using the Relative Log Expression (RLE) implemented in the DESeq2 package (ver. 1.22.2). Expression of COL1A1, and ACTA2, and BCL2 genes was measured by qRT-PCR (BioRad) using ddCt method with RPL13A as housekeeping gene, as previously described (refer Table 3 for the primer sequences). Gene expression profiles of the PLS/FPS-inducible cell culture model (cell-culture-derived PLS [cPLS] system) treated with erlotinib, pioglitazone, captopril, and resveratrol were obtained from our previous study (GSE81801).
# [1] = test system: NASH patients with F1 to F3 fibrosis; assay: Histological fibrosis change after 1-year treatment in phase IIb CENTAUR trial; assay type: in vivo, human; conditions: cenicriviroc arm n=9, 1-year treatment
smiles,measurement,setting,value
CCCCOCCOc1ccc(-c2ccc3c(c2)/C=C(/C(=O)Nc2ccc([S@@+]([O-])Cc4cncn4CCC)cc2)CCCN3CC(C)C)cc1 [Cenicriviroc],FPS response rate (number of responding patients),"clinical PCLS tissues; count of patients with CES-based FPS response, PCLS cultured 24 h with agent vs vehicle",4
same,PLS response rate (number of responding patients),"clinical PCLS tissues; count of patients with PLS response, ex vivo PCLS culture",7
same,patients with improvement of fibrosis in the year 1 biopsy,[1],4 patients
